Results taken from patent US10487093B2, “Heterocyclic compounds, in particular 2-oxo-4,4,5,5,6,6,7,7-octahydrobenzoxazole derivatives, and their use as antibacterial compounds” (priority 2016, dated 2019).
In brackets after ≈: the same amount, converted by molar mass. Like-named read-outs stand apart in the source and are kept apart here.

Key:
Type in all cases: cell-based
[1] = tested on: strains of Finegoldia magna; test: MIC against anaerobes, agar dilution (CLSI), clinical isolates; settings: Finegoldia magna, read-out: MIC
[2] = tested on: strains of Prevotella melaninogenica; test: as above
[3] = tested on: strains of Bacteroides thetaiotaomicron; test: microbe, parasite or virus in culture
[4] = tested on: strains of Prevotella bivia; test: MIC against anaerobes, agar dilution (CLSI), clinical isolates
[5] = tested on: Clostridium difficile ATCC 700057; test: MIC against anaerobes, agar dilution (CLSI), reference strain; settings: Clostridioides difficile, ATCC700057, 48 h, read-out: MIC, C. difficile ATCC 700057
[6] = tested on: Haemophilus influenzae ATCC 49247; test: MIC, broth microdilution (CLSI) versus planktonic bacteria; settings: ATCC49247; Haemophilus influenzae ATCC 49247; 16-20 h; mode of three independent experiments; read-out: MIC, Hi ATCC 49247
[7] = tested on: Bacteroides thetaiotaomicron ATCC 29741; test: microbe, parasite or virus in culture; settings: ATCC29741, agar dilution, Brucella blood agar, 35° C., 48 h, anaerobic conditions, read-out: MIC, B. thetaiotaomicron ATCC
[8] = tested on: strains of Peptoniphilus harei; test: MIC against anaerobes, agar dilution (CLSI), clinical isolates; settings: Peptoniphilus harei, read-out: MIC
[9] = tested on: strains of Propionibacterium acnes; test: as above; settings: Cutibacterium acnes
[10] = tested on: Bacteroides fragilis ATCC 25285; test: MIC against anaerobes, agar dilution (CLSI), reference strain; settings: ATCC25285, agar dilution, Brucella blood agar, 35° C., 48 h, anaerobic conditions, read-out: MIC, B. fragilis ATCC 25285
[11] = tested on: strains of Bacteroides fragilis; test: MIC against anaerobes, agar dilution (CLSI), clinical isolates
[12] = tested on: strains of Peptostreptococcus anaerobius; test: as above
[13] = tested on: strains of Parvimonas micra; test: as above
[14] = tested on: strains of Clostridium perfringens; test: microbe, parasite or virus in culture
[15] = tested on: Pseudomonas aeruginosa ATCC 27853; test: MIC, broth microdilution (CLSI) versus planktonic bacteria; settings: ATCC27853; Pseudomonas aeruginosa ATCC 27853; 16-20 h; mode of three independent experiments; read-out: MIC, Pa ATCC 27853

Cc1ccc2ncc(=O)n(CCN[C@H]3CC[C@H]4[C@@H](C3)OC(=O)N4c3ccc4c(n3)NC(=O)CO4)c2c1 [Compound 27, 1-(2-{[(3aS,6S,7aR)-2-oxo-3-{3-oxo-2H,3H,4H-pyrido[3,2-b][1,4]oxazin-6-yl}-octahydro-1,3-benzoxazol-6-yl]amino}ethyl)-7-methyl-1,2-dihydroquinoxalin-2-one]
MIC ([1]; Finegoldia magna strain 1): 1 to 4 µg/mL (≈ 2.04 to 8.15 µM)
MIC ([1]; Finegoldia magna strain 2): 16 to 64 µg/mL (≈ 32.6 to 130 µM)
MIC ([1]; Finegoldia magna strain 3): 1 to 4 µg/mL (≈ 2.04 to 8.15 µM)
MIC ([1]; Finegoldia magna strain 4): 16 to 64 µg/mL (≈ 32.6 to 130 µM)
MIC ([1]; Finegoldia magna strain 5): 16 to 64 µg/mL (≈ 32.6 to 130 µM)
MIC ([1]; Finegoldia magna strain 6): 16 to 64 µg/mL (≈ 32.6 to 130 µM)
MIC ([1]; Finegoldia magna strain 7): > 64 µg/mL
MIC ([1]; Finegoldia magna strain 8): 1 to 4 µg/mL (≈ 2.04 to 8.15 µM)
MIC ([1]; Finegoldia magna strain 9): > 64 µg/mL
MIC ([1]; Finegoldia magna strain 10): 4 to 16 µg/mL (≈ 8.15 to 32.6 µM)
MIC ([1]; Finegoldia magna strain 11): 16 to 64 µg/mL (≈ 32.6 to 130 µM)
MIC ([1]; Finegoldia magna strain 12): 16 to 64 µg/mL (≈ 32.6 to 130 µM)
MIC ([2]; Prevotella melaninogenica strain 1): 1 to 4 µg/mL (≈ 2.04 to 8.15 µM)
MIC ([2]; Prevotella melaninogenica strain 2): < 1 µg/mL
MIC ([2]; Prevotella melaninogenica strain 3): < 1 µg/mL
MIC ([2]; Prevotella melaninogenica strain 4): < 1 µg/mL
MIC ([2]; Prevotella melaninogenica strain 5): < 1 µg/mL
MIC ([2]; Prevotella melaninogenica strain 6): < 1 µg/mL
MIC ([2]; Prevotella melaninogenica strain 7): < 1 µg/mL
MIC ([2]; Prevotella melaninogenica strain 8): < 1 µg/mL
MIC ([2]; Prevotella melaninogenica strain 9): < 1 µg/mL
MIC ([2]; Prevotella melaninogenica strain 10): 1 to 4 µg/mL (≈ 2.04 to 8.15 µM)
MIC ([2]; Prevotella melaninogenica strain 11): < 1 µg/mL
MIC ([3]; Bacteroides thetaiotaomicron strain 1, read-out: MIC): 4 to 16 µg/mL (≈ 8.15 to 32.6 µM)
MIC ([3]; Bacteroides thetaiotaomicron strain 2, read-out: MIC): 1 to 4 µg/mL (≈ 2.04 to 8.15 µM)
MIC ([3]; Bacteroides thetaiotaomicron strain 3, read-out: MIC): 4 to 16 µg/mL (≈ 8.15 to 32.6 µM)
MIC ([3]; Bacteroides thetaiotaomicron strain 4, read-out: MIC): 4 to 16 µg/mL (≈ 8.15 to 32.6 µM)
MIC ([3]; Bacteroides thetaiotaomicron strain 5, read-out: MIC): 1 to 4 µg/mL (≈ 2.04 to 8.15 µM)
MIC ([3]; Bacteroides thetaiotaomicron strain 6, read-out: MIC): 4 to 16 µg/mL (≈ 8.15 to 32.6 µM)
MIC ([3]; Bacteroides thetaiotaomicron strain 7, read-out: MIC): 4 to 16 µg/mL (≈ 8.15 to 32.6 µM)
MIC ([3]; Bacteroides thetaiotaomicron strain 8, read-out: MIC): 1 to 4 µg/mL (≈ 2.04 to 8.15 µM)
MIC ([3]; Bacteroides thetaiotaomicron strain 9, read-out: MIC): < 1 µg/mL
MIC ([3]; Bacteroides thetaiotaomicron strain 10, read-out: MIC): 1 to 4 µg/mL (≈ 2.04 to 8.15 µM)
MIC ([3]; Bacteroides thetaiotaomicron strain 11, read-out: MIC): 4 to 16 µg/mL (≈ 8.15 to 32.6 µM)
MIC ([4]; Prevotella bivia strain 1): < 1 µg/mL
MIC ([4]; Prevotella bivia strain 2): < 1 µg/mL
MIC ([4]; Prevotella bivia strain 3): 1 to 4 µg/mL (≈ 2.04 to 8.15 µM)
MIC ([4]; Prevotella bivia strain 4): 1 to 4 µg/mL (≈ 2.04 to 8.15 µM)
MIC ([4]; Prevotella bivia strain 5): < 1 µg/mL
MIC ([4]; Prevotella bivia strain 6): 1 to 4 µg/mL (≈ 2.04 to 8.15 µM)
MIC ([4]; Prevotella bivia strain 7): 1 to 4 µg/mL (≈ 2.04 to 8.15 µM)
MIC ([4]; Prevotella bivia strain 8): < 1 µg/mL
MIC ([4]; Prevotella bivia strain 9): < 1 µg/mL
MIC ([4]; Prevotella bivia strain 10): < 1 µg/mL
MIC [5]: 1 to 4 µg/mL (≈ 2.04 to 8.15 µM)
MIC [6]: 1 to 10 µg/mL (≈ 2.04 to 20.4 µM)
MIC [7]: 1 to 4 µg/mL (≈ 2.04 to 8.15 µM)
MIC ([8]; Peptoniphilus harei strain 1): < 1 µg/mL
MIC ([8]; Peptoniphilus harei strain 2): < 1 µg/mL
MIC ([8]; Peptoniphilus harei strain 3): < 1 µg/mL
MIC ([8]; Peptoniphilus harei strain 4): < 1 µg/mL
MIC ([8]; Peptoniphilus harei strain 5): < 1 µg/mL
MIC ([8]; Peptoniphilus harei strain 6): < 1 µg/mL
MIC ([8]; Peptoniphilus harei strain 7): < 1 µg/mL
MIC ([8]; Peptoniphilus harei strain 8): < 1 µg/mL
MIC ([8]; Peptoniphilus harei strain 9): < 1 µg/mL
MIC ([8]; Peptoniphilus harei strain 10): < 1 µg/mL
MIC ([8]; Peptoniphilus harei strain 11): < 1 µg/mL
MIC ([8]; Peptoniphilus harei strain 12): < 1 µg/mL
MIC ([9]; Propionibacterium acnes strain 1): 1 to 4 µg/mL (≈ 2.04 to 8.15 µM)
MIC ([9]; Propionibacterium acnes strain 2): < 1 µg/mL
MIC ([9]; Propionibacterium acnes strain 3): < 1 µg/mL
MIC ([9]; Propionibacterium acnes strain 4): < 1 µg/mL
MIC ([9]; Propionibacterium acnes strain 5): 1 to 4 µg/mL (≈ 2.04 to 8.15 µM)
MIC ([9]; Propionibacterium acnes strain 6): 1 to 4 µg/mL (≈ 2.04 to 8.15 µM)
MIC ([9]; Propionibacterium acnes strain 7): 1 to 4 µg/mL (≈ 2.04 to 8.15 µM)
MIC ([9]; Propionibacterium acnes strain 8): 1 to 4 µg/mL (≈ 2.04 to 8.15 µM)
MIC ([9]; Propionibacterium acnes strain 9): 1 to 4 µg/mL (≈ 2.04 to 8.15 µM)
MIC ([9]; Propionibacterium acnes strain 10): 1 to 4 µg/mL (≈ 2.04 to 8.15 µM)
MIC ([9]; Propionibacterium acnes strain 11): < 1 µg/mL
MIC ([9]; Propionibacterium acnes strain 12): 1 to 4 µg/mL (≈ 2.04 to 8.15 µM)
MIC [10]: 4 to 16 µg/mL (≈ 8.15 to 32.6 µM)
MIC ([11]; Bacteroides fragilis strain 1): 16 to 64 µg/mL (≈ 32.6 to 130 µM)
MIC ([11]; Bacteroides fragilis strain 2): 1 to 4 µg/mL (≈ 2.04 to 8.15 µM)
MIC ([11]; Bacteroides fragilis strain 3): 1 to 4 µg/mL (≈ 2.04 to 8.15 µM)
MIC ([11]; Bacteroides fragilis strain 4): 1 to 4 µg/mL (≈ 2.04 to 8.15 µM)
MIC ([11]; Bacteroides fragilis strain 5): 1 to 4 µg/mL (≈ 2.04 to 8.15 µM)
MIC ([11]; Bacteroides fragilis strain 6): 1 to 4 µg/mL (≈ 2.04 to 8.15 µM)
MIC ([11]; Bacteroides fragilis strain 7): 4 to 16 µg/mL (≈ 8.15 to 32.6 µM)
MIC ([11]; Bacteroides fragilis strain 8): 1 to 4 µg/mL (≈ 2.04 to 8.15 µM)
MIC ([11]; Bacteroides fragilis strain 9): 1 to 4 µg/mL (≈ 2.04 to 8.15 µM)
MIC ([11]; Bacteroides fragilis strain 10): 1 to 4 µg/mL (≈ 2.04 to 8.15 µM)
MIC ([11]; Bacteroides fragilis strain 11): 1 to 4 µg/mL (≈ 2.04 to 8.15 µM)
MIC ([11]; Bacteroides fragilis strain 12): 1 to 4 µg/mL (≈ 2.04 to 8.15 µM)
MIC ([12]; Peptostreptococcus anaerobius strain 1): < 1 µg/mL
MIC ([12]; Peptostreptococcus anaerobius strain 2): < 1 µg/mL
MIC ([12]; Peptostreptococcus anaerobius strain 3): < 1 µg/mL
MIC ([12]; Peptostreptococcus anaerobius strain 4): 4 to 16 µg/mL (≈ 8.15 to 32.6 µM)
MIC ([12]; Peptostreptococcus anaerobius strain 5): < 1 µg/mL
MIC ([12]; Peptostreptococcus anaerobius strain 6): < 1 µg/mL
MIC ([12]; Peptostreptococcus anaerobius strain 7): < 1 µg/mL
MIC ([12]; Peptostreptococcus anaerobius strain 8): < 1 µg/mL
MIC ([12]; Peptostreptococcus anaerobius strain 9): < 1 µg/mL
MIC ([12]; Peptostreptococcus anaerobius strain 10): < 1 µg/mL
MIC ([13]; Parvimonas micra strain 1): > 64 µg/mL
MIC ([13]; Parvimonas micra strain 2): 16 to 64 µg/mL (≈ 32.6 to 130 µM)
MIC ([13]; Parvimonas micra strain 3): > 64 µg/mL
MIC ([13]; Parvimonas micra strain 4): > 64 µg/mL
MIC ([13]; Parvimonas micra strain 5): > 64 µg/mL
MIC ([13]; Parvimonas micra strain 6): 1 to 4 µg/mL (≈ 2.04 to 8.15 µM)
MIC ([13]; Parvimonas micra strain 7): 16 to 64 µg/mL (≈ 32.6 to 130 µM)
MIC ([13]; Parvimonas micra strain 8): 16 to 64 µg/mL (≈ 32.6 to 130 µM)
MIC ([13]; Parvimonas micra strain 9): 16 to 64 µg/mL (≈ 32.6 to 130 µM)
MIC ([13]; Parvimonas micra strain 10): 16 to 64 µg/mL (≈ 32.6 to 130 µM)
MIC ([13]; Parvimonas micra strain 11): 16 to 64 µg/mL (≈ 32.6 to 130 µM)
MIC ([13]; Parvimonas micra strain 12): 16 to 64 µg/mL (≈ 32.6 to 130 µM)
MIC ([14]; Clostridium perfringens strain 1): < 1 µg/mL
MIC ([14]; Clostridium perfringens strain 2): < 1 µg/mL
MIC ([14]; Clostridium perfringens strain 3): < 1 µg/mL
MIC ([14]; Clostridium perfringens strain 4): < 1 µg/mL
MIC ([14]; Clostridium perfringens strain 5): < 1 µg/mL
MIC ([14]; Clostridium perfringens strain 6): < 1 µg/mL
MIC ([14]; Clostridium perfringens strain 7): < 1 µg/mL
MIC ([14]; Clostridium perfringens strain 8): 1 to 4 µg/mL (≈ 2.04 to 8.15 µM)
MIC ([14]; Clostridium perfringens strain 9): < 1 µg/mL
MIC ([14]; Clostridium perfringens strain 10): < 1 µg/mL
MIC ([14]; Clostridium perfringens strain 11): < 1 µg/mL
MIC [15]: 1 to 10 µg/mL (≈ 2.04 to 20.4 µM)
